Experimental data reported in patent US10478501B2, “Method of treating disorders using a pharmaceutical composition of oligopeptides” (Merck Patent GmbH, priority 2011, dated 2019).

How the values were obtained:
H1299 = test: In vitro cell viability by MTS assay, H1299; type: cell-based, human; conditions: 5 μg/ml, 24 h
Protocol: (§1) Methods: Three non-small cell lung carcinoma lines (NSCLCs) (H460, A549 and H1299) and three head and neck squamous cell carcinoma lines (HNSCCs) (FaDu, SCC-15 and SCC-25) cell lines were used for in vitro experiments. Of these, H460 and FaDu were used for in vivo testing when grown as xenografts in nude mice. The effects of cilengitide (1-50 μg/ml, 24 h) on in vitro cell viability was determined by MTS assay and on cellular radiosensitivity by clonogenic cell survival assay after exposing the cells to graded single doses of γ-radiation with or without cilengitide (given 1 h before and continued for 23 h after irradiation). In vivo effect of cilengitide on radioresponse of xenografts was assessed by tumor growth delay. When tumor xenografts reached 7 mm in diameter cilengitide treatment (30 or 60 mg/d/5 or 10 days) was initiated followed by a single dose of 15 Gy local radiation (using ^137Cs γ-ray source), when the tumors reached 8 mm.

[1] = system: 4T1 mouse breast tumour cells; test: Study 006: 4T1 survival model; type: in vivo, female BALB/c mice; conditions: 300 mg/kg daily s.c. as Composition according to Example 18; mastectomy 11 days post-inoculation
Protocol: 4T1 mouse breast tumour cells were orthotopically inoculated into the fourth mammary fat pad of female BALB/c mice. Treatment started seven days post-inoculation (Day 0), when the mice were randomised, based on tumour size. Animals received treatment with either Vehicle Control (Placebo), EMD 121974 (75, 150 or 300 mg/kg as a Composition according to Example 18), or Taxol® (8 mg/kg). The Vehicle Control and EMD 121974 were administered daily by subcutaneous injection. Taxol® was administered three times weekly by intravenous injection. To assess the survival of tumor bearing animals a mastectomy was performed 11 days post-inoculation (4 days after treatment start). Animals were monitored daily for clinical symptoms and were culled if body weight loss in any animal exceeded 15% of initial weight, the animal was culled or disease progression was observed (e.g. severe breathing difficulties). Body weight measurements were made three times per week.

[2] = system: MDA-MB468 human breast tumour cells; test: Study 007: MDA-MB-468 primary tumor growth; type: in vivo, female BALB/c nu/nu mice; conditions: all three dosing groups (75, 150 or 300 mg/kg) daily s.c., composition according to Example 18; Vehicle Control higher than 350 mm^3
Protocol: MDA-MB468 human breast tumour cells were orthotopically inoculated into the third mammary fat pad of female BALB/c nu/nu mice. The mice were randomised into groups when the tumors reached a size of approximately 40 mm^3.
The mice in each group received treatment with either Vehicle Control (Placebo) or EMD 121974 (75, 150 or 300 mg/kg as a Composition according to Example 18) by daily subcutaneous injection. Body weight and tumour volume measurements were made for all mice three times per week.

H460 = test: Cellular radiosensitivity by clonogenic cell survival assay, H460; type: cell-based, human; conditions: combined with γ-radiation, given 1 h before and continued 23 h after irradiation
Protocol: as §1

[3] = system: BT474 human breast cancer cells; test: Her2+ breast cancer model BT474, Cilengitide in combination with Herceptin; type: in vivo, Balbc nu/nu mice; conditions: 300 mg/kg Cilengitide s.c. daily
Excerpt: BT474 human breast cancer cells were subcutaneously injected into Balbc nu/nu mice. The mice were randomized into different treatment groups when the tumors reached a mean tumor volume of approximately 125 mm^3.

Question: Which results are given for `CC(C)[C@H]1C(=O)N[C@@H](CCCN=C(N)N)C(=O)NCC(=O)N[C@@H](CC(=O)O)C(=O)N[C@H](Cc2ccccc2)C(=O)N1C` [Cilengitide, cyclo-(Arg-Gly-Asp-DPhe-NMeVal)]?
Answer: in vitro viability (H1299): 27.8±4.2%; survival of tumor bearing animals [1]: comparable survival as Taxol; tumour volume on day 60 [2]: below 200 mm^3; radiosensitivity enhancement factor (H460): 1.35; tumor growth of Her2+ BT474 tumors under monotherapy [3]: did not inhibit the tumor growth
